# In US11243207B2, “Assessing and treating cancer” (Mayo Foundation for Medical Education and Research, priority 2018, dated 2022):
# pIC50: −log10 of the molar value.
# Assays:
# HLF cells = experiment: Combination proliferation assay in HLF cells (Chou and Talalay); type: cell-based; conditions: in combination with SSI-4
# Protocol: (§3) Cell lines were maintained in DMEM media supplemented with sodium pyruvate, HEPES, non-essential amino acids, 3% FBS and antibiotics. Cells were plated at 30,000 cells per well in 12-well plate and treated for 4-5 days at the indicated doses with SSI4 and sorafenib diluted in DMSO at 1:1000. Cell number was determined by using a Coulter Particle Counter.
# HCC cell lines = experiment: Proliferation assay in HCC cell lines; type: cell-based
# Protocol: as §3
# HLE HCC mouse model = experiment: HLE HCC mouse model, combination study; type: in vivo; conditions: 10 mg/kg SSI4, 30 mg/kg sorafenib or both
# Protocol: (§1) Tissues were cut into 4×4×4 mm cubes and surgically implanted under anesthesia with 100 μl Matrigel into 4-6 week old athymic nude female mice. Tumors were measured 1 to 2 times per week using calipers and volumes calculated by […]*(L×W×H). Once tumors reached ˜100 mm3, either placebo or SSI-4 treatment was administered at 180, or 600 mg/kg in custom AIN76 animal chow by Research Diets, Inc. Based upon food consumption, the amount of SSI4 ingested was 20 mg/kg and 50 mg/kg, respectively. For the combination study, mice were administered either 10 mg/kg SSI4, 30 mg/kg sorafenib or both in Nutra-gel diet.
# [1] = test system: SSI-4 responsive HCC cells; experiment: Soft agar colony formation assay; type: cell-based
# Protocol: Soft agar cultures were prepared by diluting 2× growth medium 1:1 in 1.5% Seaplaque GTG agarose with 1000 cells/plate in 6-well culture dishes. Colonies were stained with Giemsa after 3 weeks and colonies larger than 150 μm were counted using Image J software.
# CX-003 CCA PDTX = CX-003 CCA PDTX mouse model (c-Myc negative); type: in vivo; conditions: 50 mg/kg oral daily
# Protocol: as §1
# [2] = test system: mouse (M1-1a and M6-1b) cholangiocarcinoma (CCA) cell lines; experiment: Proliferation of mouse CCA cell lines; type: cell-based; conditions: 0.1-1 μM, 5 day exposure
# [3] = test system: cMyc, survivin, cyclin D1, cleaved PARP, BIP; experiment: Western blot analysis of HCC cell lines; type: cell-based
# Protocol: Cells were collected via scraping and lysed in RIPA extraction buffer containing protease inhibitor cocktail and phosphatase inhibitor. Protein concentrations were measured by bicinchoninic acid (BCA) assay and 30 μg were loaded on 4-12% Bis-Tris/MES gels and then transferred to 0.2 μm Immobilon-P membranes. The membranes were hybridized overnight at 4° C. with the following antibodies: SCD1, PARP, survivin, c-Myc, BIP and β-actin. Secondary species-specific horseradish peroxidase-labeled antibodies were from Jackson Immunoresearch. Detection was performed using Supersignal chemiluminescence kit.
# PAX148 HCC PDTX = PAX148 HCC PDTX mouse model; type: in vivo; conditions: daily SSI-4 20-50 mg/kg oral, high LDHA model
# Protocol: as §1
# [4] = test system: SSI4 responsive HCC cells; experiment: Lipid assay, unsaturated fatty acids in HCC cells; type: cell-based; conditions: 1 μM, 48 hour treatment
# Protocol: Cells were treated for 48 hours with 1 μM SSI4 and lipids from 8 million cells were extracted using the 1957 Folch Lipid Extraction method. Lipids were re-suspended in DMSO and analyzed using Cell Biolab's lipid quantitation assay kit. Borosilicate glass tubes and polypropylene tips and plates were used during the experiments. Samples were read at OD540 nm and were background corrected on a Spectramax M3 spectrophotometer.
# [5] = test system: Normal human hepatocytes (HH) cells; experiment: Proliferation assay in normal human hepatocytes; type: cell-based; conditions: 1 μM
# [6] = Single dose pharmacokinetics in fasted male C57BL/6 mice (PO or IV); type: in vivo, mouse
# Protocol: (§2) Pharmacokinetic assessment was performed for SSI-4 administered to fasted male C57BL/6 mice either intravenously (IV) or by oral gavage (PO) in DMSO:PEG400:water (10:70:20) as a clear solution at 5 mg/mL (IV dosing), and 1.3 or 10 mg/mL (respectively for the PO dosing). Serum analysis was performed by LC-MS-MS. PK calculation settings were obtained using the Phoenix WinNonlin 6.3 program, using either the Noncompartmental model 201 (IV bolus input) or Noncompartmental model 200 (extravascular input). Microsomes were isolated from murine liver using Microsome Isolation Kit (BioVision). Each assay (100 μL) contained 50 μg of microsomes, 1 μL of DMSO (for no drug controls) or DMSO-solubilized SCD1 inhibitor, 1 mM reduced NADH, 60 µM coenzyme A, 1 mM ATP, 1 mM DTT, and 5 mM MgCl2 in 100 mM sodium phosphate buffer (pH 7.4). […] To quantify biotransformation of 13C18-stearoyl CoA to 13C18-oleoyl CoA for drug treatments relative to vehicle controls, supernatants were evaluated using the LC/MS2 acyl CoA quantitation method of Magnes et al. and adapting selected reaction monitoring (SRM) for isotope-labeled acyl CoAs. […] SRM signal areas for isotope-labeled acyl CoAs were measured relative to the heptadecanoyl CoA I.S. using XCalibur software, and percent enzyme inhibition determined by comparing 13C18-oleoyl CoA quantities between treatment and DMSO control assays. […]
# 468 kinases = experiment: Full matrix kinome scan, binding to 468 kinases; set-up: species or system human
# Protocol: Kinome Scan was conducted by Lead Hunter Discovery Services
# SCD1 = target: T1, SCD1 (Mus musculus, UniProt P13516); experiment: Inhibition of oleoyl CoA biosynthesis by mouse liver microsomes (13C18-stearoyl CoA conversion, LC/MS); type: biochemical
# T1 construct: Each assay (100 μL) contained 50 μg of microsomes; from tissue; host or cells: mouse liver microsomes
# T1 sequence (P13516 1-355): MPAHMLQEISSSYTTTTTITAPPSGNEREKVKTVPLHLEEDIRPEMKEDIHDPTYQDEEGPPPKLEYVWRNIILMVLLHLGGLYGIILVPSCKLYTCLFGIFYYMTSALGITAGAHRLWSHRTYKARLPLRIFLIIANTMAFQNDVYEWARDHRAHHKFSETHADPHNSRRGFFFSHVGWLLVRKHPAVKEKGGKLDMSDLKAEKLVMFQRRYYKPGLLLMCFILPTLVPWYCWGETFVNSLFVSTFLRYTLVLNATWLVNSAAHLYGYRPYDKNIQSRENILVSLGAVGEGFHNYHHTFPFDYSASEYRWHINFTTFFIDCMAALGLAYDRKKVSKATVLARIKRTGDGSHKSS
# Protocol: as §2, with “Magnes” left out
# LIV58 HCC PDTX = LIV58 HCC PDTX mouse model; type: in vivo
# Protocol: as §1
# FFPE tissues were cut into 5 μm sections, deparaffinized, hydrated, antigen retrieved for 25 minutes at pH 6.0 and blocked for 5 minutes with Dako diluent. Immunostaining was done for 1 hour with either lamin A+C, SCD1, c-Myc, survivin, LDHA, ki67, and BIP primary antibodies. For detection, the Envision Dual Labeled Polymer kit (Dako) was used for 30 minutes for anti-species secondary antibodies and stained with DAB chromagen for 5 minutes. Then, lightly counterstained with Gill I hematoxylin for 30 seconds before dehydration and mounting. Images were obtained at 20× using an Aperio AT2 Scanscope. IHC scoring was done using an algorithm in the Imagescope software based upon signal intensity of weak (1+), moderate (2+) or strong staining (3+) with criteria of at least 20% positivity. H score was calculated based upon signal intensity (0-3) using the formula: [(1+%×1)+(2+%×2)+(3+%×3)].
# [7] = test system: human (CX-004T2 and HUCCT1) cholangiocarcinoma (CCA) cell lines; experiment: Proliferation of human CCA cell lines; type: cell-based; conditions: 0.1-1 μM, 5 day exposure
# [8] = Seven day oral toxicity test in Sprague Dawley rats; type: in vivo, rat
# Protocol: Sprague dawley rats (6-8 weeks old M/F) were orally gavaged with SS1-4 at the indicated dose daily, for a duration of seven days. For each dose levels 3 male and 3 females were placed on study. Rats were clinically observed and weighed daily. On day 8 rats were euthanatized and blood was collected by cardiac puncture. Blood chemistry was measured by STAT Veterinary laboratory.
compound,measurement,setting,value
CNC(=O)c1cc(Oc2ccc(NC(=O)Nc3ccc(Cl)c(C(F)(F)F)c3)c(F)c2)ccn1 [Regorafenib],synergy by Chou and Talalay method,HLF cells,exhibited synergy
"CNC(=O)c1cc(Oc2ccc(NC(=O)Nc3ccc(Cl)c(C(F)(F)F)c3)cc2)ccn1 [sorafenib, reference compound]",pIC50,HCC cell lines; all cell lines tested,5.19 to 5.77
same,in vivo tumor response over time,HLE HCC mouse model,escape over time on therapy
"CNC(=O)c1ccnc(NC(=O)N2CCC(Oc3ccccc3Cl)CC2)c1 [SSI-4, 2-{[4-(2-Chlorophenoxy)piperidine-1-carbonyl]amino}-N-methylpyridine-4-carboxamide]",colony formation in soft agar,[1],decreased colony formation
same,proliferation response in HCC cells silenced for cMyc with shRNA,"HCC cell lines; 1 uM SSI-4, c-Myc 1657 shRNA",blunted response
same,pIC50,HCC cell lines; other (non-responsive) HCC cell lines,≤ 5.00
same,antitumor response (tumor volume),CX-003 CCA PDTX,no response
same,cell growth,[2],growth inhibition
same,ER stress (BIP),[3],inducing
same,"Wnt regulated genes (cMyc, survivin and cyclin D1) protein",[3],down-regulated
same,apoptosis (cleaved PARP),[3],inducing apoptosis
same,antitumor response (tumor volume),PAX148 HCC PDTX,highly sensitive
same,levels of unsaturated fatty acids,[4],decreased
same,growth inhibition,[5],not growth inhibited
same,half-life,"[6]; male, C57BL/6, mouse, serum, following a single oral dose",3 to 4 h
same,oral bioavailability,"[6]; single dose, mice",excellent oral bioavailability
same,in vivo tumor response over time,HLE HCC mouse model,escape over time on therapy
same,kinases found to bind (of 468),468 kinases; SSI-4 at 10 nM,none
same,kinases found to bind (of 468),"468 kinases; SSI-4 at 100 nM, kinase bound is CDKL2",1
same,pIC50,SCD1,8.72
same,"BIP, biomarker of ER stress (IHC)",LIV58 HCC PDTX; LIV58 tumors,upregulated
same,"Ki-67, survivin and cMyc (IHC)",LIV58 HCC PDTX; LIV58 tumors,attenuated
same,antitumor response (tumor volume),"LIV58 HCC PDTX; daily SSI-4 20-50 mg/kg oral, low LDHA model",~30%
same,cell growth,[7],growth inhibition
same,blood chemistries,[8]; day 8,in normal range
same,toxicity,"[8]; male or female rats, daily oral for seven days",Little to no toxicity
same,weight loss,"[8]; males, 300 mg/kg",6%
